Patent US11382848B2, “Compounds reducing malodour perception and the use thereof” (CHEMCOM S.A., priority 2017, dated 2022)

Biological target: T1, human olfactory receptor OR7D4 (Homo sapiens, UniProt Q8NG98)
T1 construct: transfected with a plasmid containing CRE-luciferase and a plasmid containing OR7D4; expressed in transfected cells; host or cells: HEK293T stably expressing olfactory chaperone proteins of the RTP family
T1 sequence (Q8NG98 1-312): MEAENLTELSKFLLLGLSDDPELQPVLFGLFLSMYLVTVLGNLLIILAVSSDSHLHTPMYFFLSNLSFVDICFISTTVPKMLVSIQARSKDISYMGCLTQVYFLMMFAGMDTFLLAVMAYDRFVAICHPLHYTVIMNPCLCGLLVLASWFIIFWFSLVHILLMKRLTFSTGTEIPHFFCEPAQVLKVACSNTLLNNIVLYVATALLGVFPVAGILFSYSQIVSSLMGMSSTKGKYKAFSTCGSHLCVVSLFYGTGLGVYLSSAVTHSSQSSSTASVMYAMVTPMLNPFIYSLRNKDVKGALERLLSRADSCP
Assay: OR7D4 luciferase gene reporter assay (antagonism of agonist-induced activation)
Type: cell-based
Conditions: dose-response, luciferase assay; half decrease of the luciferase production obtained without antagonist; androstenone at 31.6 micromolar
Procedure: Cells were maintained in minimal essential medium (EMEM, Lonza) containing 10% fetal bovine serum (M10). HEK293T stably expressing olfactory chaperone proteins from the RTP family as described in WO 2006/002161 (introduced here as a reference) were generated by transfecting HEK293T cells with expression vector containing the chaperone gene sequences and a resistance gene to puromycin, using Lipofectamine 2000. A recombinant cell population was selected by adding 10 μg/ml of puromycin into the culture medium. Monoclonal populations were further obtained by limit dilution procedure. Briefly, a cell suspension was diluted to contain 1 cell per ml and this dilution was dispatched in poly-D-lysine-coated 96 well plates (200 μl of dilution per well). After 5 days of culture, the presence and number of cell colonies per well was checked under a phase contrast microscope. After 5 additional days of culture, wells containing a single colony were harvested and each collected population was amplified independently.
The 5-alpha-androst-16-ene-3-one, used as an agonist of the human olfactory receptor OR7D4 and the tested molecules were diluted at a concentration of 1 mole/litre (M) into dimethyl sulfoxide (DMSO) to generate stock solutions.
For concentration-response analysis, serial dilutions of the tested molecules were prepared from stock solutions in EMEM plated into 96-well plates.
Briefly, cells were plated on poly-D-lysine-coated 96-well plates (BD Bioscience, Erembodegem-Dorp, Belgium) and transfected with a plasmid containing CRE-luciferase and a plasmid containing OR7D4. Sixteen hours after transfection, the culture medium was replaced by serum-free EMEM containing the tested ligands at a determined concentration. After four hours of incubation at 37° C. degree, cells were lysed and processed for luminescence measurement according to the manufacturer's protocols. Luminescence emission was recorded on a Spectra Max M5 reader (Molecular Devices, Sunnyvale, Calif.). Results were expressed as percentage of the response induced by 10 μM of the adenylate cyclase activator Forskolin.
The ability of the compounds of the invention to inhibit the activity of androstenone on OR7D4 receptor was assessed by the luciferase assay described above.
To determine whether a molecule antagonizes OR7D4, this compound was introduced in the incubation medium of the Luciferase assay described above at a concentration of either 316 μM, 100 μM or 31.6 μM, along with the known activator of the receptor 5α-androst-16-en-3-one at a concentration of 31.6 μM. Molecules were considered as “hits” i.e., as having an antagonist effect on the receptor, if they induced a decrease of at least 50% of the luciferase production elicited upon activation of OR7D4 by 5α-androst-16-en-3-one.
Putative antagonist molecule libraries containing compound 1 and other types of molecules were used to identify antagonist of the receptor OR7D4. The screening campaign was performed on the OR7D4 with a series of 112 putative antagonist molecules. In this screening campaign, compound 1 was identified as a hit.
The compound 1 was further confirmed as antagonist of OR7D4 by performing dose-response analysis using the luciferase assay. Different concentrations of compound 1, ranging from 31.6 nM to 1 mM were tested on HEK293 cell expressing OR7D4 and stimulated with 31.6 μM of 5α-androst-16-en-3-one.
The antagonistic property of compound 1 on OR7D4 was further confirmed by measuring the response of the OR7D4 to 5α-androsta-4,16-dien-3-one in presence of compound 1, using the luciferase assay as describe hereinabove. The observed inhibition was in the same range as the one observed when stimulating the receptor with 5α-androst-16-en-3-one.
To further explore the antagonism on OR7D4, a series of compounds structurally related to compound 1 were synthesized and assessed as antagonists of OR7D4 by dose-response analysis using the luciferase assay. […]

Compound | IC50
CCOC(=O)/C(C)=C/C(=C/c1ccccc1)C(C)CC(C)(C)C (stereo not drawn) [Compound 11] | 8 µM
CCCCCCC(/C=C(\C)COC)=C\c1ccccc1 [Compound 42, ((E)-2-((E)-3-methoxy-2-methylprop-1-en-1-yl)oct-1-en-1-yl)benzene] | 25 µM
CCCCCCC(/C=C/CO)=C\c1ccc(F)cc1 [Compound 33, (E)-4-((E)-4-fluorobenzylidene)dec-2-en-1-ol] | 18 µM
CCc1cccc(/C=C(C)/C=C/C(=O)N(C)C)c1 [Compound 25, (2E,4E)-5-(3-ethylphenyl)-N,N,4-trimethylpenta-2,4-dienamide] | 126 µM
CCCCCC(/C=C/C(=O)OCC)=C\c1ccc(F)cc1 [Compound 45, ethyl (E)-4-((E)-4-fluorobenzylidene)non-2-enoate] | 4 µM
CCCCCC(/C=C(\C)C=O)=C\c1ccccc1 [Compound 40] | 29 µM
C=CCCCCC(=C\c1ccccc1)/C=C(\C)C(=O)OCC [Compound 8] | 1 µM
COc1cccc(/C=C/C=C(\C)C=O)c1 [Compound 36, (2E,4E)-5-(3-methoxyphenyl)-2-methylpenta-2,4-dienal] | 79 µM
CCCCCCC(/C=C/C(=O)OCC)=C\c1ccc(F)cc1 [Compound 5, ethyl (E)-4-((E)-4-fluorobenzylidene)dec-2-enoate] | 14 µM
CCCCCCC(=C\c1ccccc1)/C=C(\C)C(N)=O [Compound 23, (E)-4-((E)-benzylidene)-2-methyldec-2-enamide] | 1 µM
CCCCCCC(/C=C(\C)C#N)=C\c1ccccc1 [Compound 17] | 12 µM
CCCCCCC(/C=C/C(C)=O)=C\c1ccccc1 [Compound 30, (E)-5-((E)-benzylidene)undec-3-en-2-one] | 6 µM
CCCCCCC(/C=C/C=O)=C\c1ccccc1 [Compound 39, (E)-4-((E)-benzylidene)dec-2-enal] | 6 µM
CCCC(/C=C/C(=O)OCC)=C\c1ccccc1 [Compound 15] | 85 µM
CCCCCCC(/C=C(\C)COCC)=C\c1ccc(F)cc1 [Compound 44, 1-((E)-2-((E)-3-ethoxy-2-methylprop-1-en-1-yl)oct-1-en-1-yl)-4-fluorobenzene] | 22 µM
CCOc1ccccc1/C=C(/C=C(\C)C(=O)O)CC [Compound 20] | 32 µM
CCCCCCC(/C=C/C#N)=C\c1ccccc1 [Compound 16, 4-benzylidenedec-2-enenitrile] | 8 µM
CCCCCCC(=C\c1ccc(C#N)cc1)/C=C(\C)C(=O)O [Compound 19, (E)-4-((E)-4-cyanobenzylidene)-2-methyldec-2-enoic Acid] | 45 µM
CCCCCCC(=C\c1ccccc1)/C=C(\C)C(C)=O [Compound 29, 5-benzylidene-3-methylundec-3-en-2-one] | 1 µM
CCOC(=O)/C(C)=C/C=C/c1cccc(OC)c1 [Compound 2, ethyl (2E,4E)-5-(3-methoxyphenyl)-2-methylpenta-2,4-dienoate] | 25 µM
CCCC(/C=C(\C)CO)=C\c1ccccc1 [Compound 35] | 53 µM
CCCC(/C=C(\C)C=O)=C\c1ccccc1 [Compound 41] | 187 µM
CCCCCC(/C=C/C(=O)OCC)=C\c1ccccc1 [Compound 14] | 14 µM
CCCCCCC(=C\c1ccccc1)/C=C(\C)C(=O)O [Compound 21, 4-benzylidene-2-methyldec-2-enoic Acid] | 62 µM
CCCCCCC(/C=C/C(N)=O)=C\c1ccccc1 [Compound 27] | 14 µM
CCCc1ccccc1/C=C/C=C/C=O [Compound 37, (2E,4E)-5-(2-propylphenyl)penta-2,4-dienal] | 126 µM
CCCCCCC(=C\c1ccccc1)/C=C(\C)C(=O)NC [Compound 24, (E)-4-((E)-benzylidene)-N,2-dimethyldec-2-enamide] | 2 µM
CCCCCCC(/C=C/C(=O)OC)=C\c1ccccc1 [Compound 10] | 2 µM
CCCCCC(/C=C/C(=O)OC)=C\c1ccc(F)cc1 [Compound 46, methyl (2E,4E)-4-(4-fluorobenzylidene)-2-nonenoate] | 25 µM

Further compounds by falling IC50, results first:

IC50 | Compound
126 µM | CCCCCCC(/C=C(\C)COCC)=C\c1ccccc1 [Compound 43, ((E)-2-((E)-3-ethoxy-2-methylprop-1-en-1-yl)oct-1-en-1-yl)benzene]
126 µM | CCCc1ccccc1/C=C/C=C/CO [Compound 32, (2E,4E)-5-(2-propylphenyl)penta-2,4-dien-1-ol]
75 µM | CCCCCCC(/C=C/C(=O)O)=C\c1ccccc1 [Compound 22]
63 µM | COc1cccc(/C=C/C=C(\C)CO)c1 [Compound 31, (2E,4E)-5-(3-methoxyphenyl)-2-methylpenta-2,4-dien-1-ol]
50 µM | CCCc1ccccc1/C=C/C=C/C(=O)OCC [Compound 3, ethyl (2E,4E)-5-(2-propylphenyl)penta-2,4-dienoate]
25 µM | (E)-4-((E)-4-fluorobenzylidene)dec-2-enal [Compound 38]
25 µM | CCOC(=O)/C(C)=C/C(=C/c1ccccc1OCC)CC [Compound 6, ethyl (E)-4-((E)-2-ethoxybenzylidene)-2-methylhex-2-enoate]
19 µM | CCCCCC(/C=C(\C)CO)=C\c1ccccc1 [Compound 34]
16 µM | CCCCCc1ccccc1/C=C/C=C/C(=O)OCC [Compound 4, ethyl (2E,4E)-5-(2-pentylphenyl)penta-2,4-dienoate]
13 µM | CCCCCCC(=C\c1ccc(C#N)cc1)/C=C(\C)C(=O)OCC [Compound 7, ethyl (E)-4-((E)-4-cyanobenzylidene)-2-methyldec-2-enoate]
8 µM | CCOC(=O)/C(C)=C/C(=C/c1ccccc1)CC1CCCC1 [Compound 12]
7 µM | CCCCCCC(/C=C/C(=O)OCC)=C\c1ccccc1 [Compound 13]
2 µM | CCCCCCC(=C\c1ccccc1)/C=C(\C)C(=O)N(C)C [Compound 28, (E)-4-((E)-benzylidene)-N,N,2-trimethyldec-2-enamide]
